The values below come from patent US10344330B2, “Glatiramer acetate response biomarker mRNA potency assay” (Mylan Inc., priority 2013, dated 2019).

Bounds are passed on as bounds.

The test system of test [1] is mouse IL-2 mRNA in primary LN cells. The experiment in a line: Validation: mouse IL-2 mRNA by real-time PCR in LN cells of GA-immunized SJL/J mice, three experiments (Example IV). It is filed as cell-based. The settings on record: for IL-2 mRNA Fold Change: normalized to GAPDH; for induction of IL-2 mRNA: 20 μg/mL GA, 6 hours. The method, then: (§1) Three experiments were conducted using one batch of GA (Mylan GMA). The primary LN cells were stimulated by incubation with 6 concentrations (0.3 to 20 μg/mL) of the GA for 6 hours at 37° C. Total RNA was isolated from LN cells stimulated with GA or controls. cDNA was synthesized from the RNA and the mRNA levels of seven mouse cytokines, IL-2, IL-4, IL-5, IL-10, IL-13, interferon (IFN)-γ and tumor necrosis factor (TNF)-α, were quantitatively measured by a real-time PCR method.
(§2) Female SJL/J mice at 8-9 weeks of age were immunized by injection into four footpads using a 1 mL syringe with a 27-G, ½-inch needle. Each mouse received a total injection volume of 0.1 mL of GMA emulsified in CFA (about 10 μL into each of the front footpads and 40 μL into each of the hind footpads). Animals were immunized on Day 0. After injection, animals were placed back in their cages and housed ≤6 animals per cage.
(§3) Immunized animals were sacrificed by cervical dislocation on Day 10 following immunization. […] After centrifugation at about 200×g for 10 minutes at 4° C., the cell pellet was re-suspended in 40 mL of DCCM-1 medium for cell counting. A Trypan blue exclusion method was used to determine the cell density of viable cells in the suspension. After cell counting, the LN cells were suspended in enriched DCCM-1 medium at density of 7.5×10^6 cells/mL. LN cells (0.12 mL) were plated into each well of 96-well tissue culture plates.
(§4) Dilutions of GA (Mylan GMA) were prepared using enriched DCCM-1 medium as the diluent. GA dilutions (0.12 mL) were added in the assigned wells of 96-well tissue culture plates. The same volume of LN cells (0.12 mL) isolated from immunized animals was added to the assigned wells. A positive control and a negative control were always performed in the same assay by treating LN cells with 2.5 μg/mL ConA and 10 μg/mL MBP, respectively. The LN cells with mock stimulation protocols (enriched DCCM-1 medium) were used to monitor the background mRNA level of a cytokine. The plates were incubated at 37° C. in a humidified 5% CO2 incubator for 6 hr.
(§5) At the end of incubation time, culture medium from stimulated cells was removed by aspiration and the cells were lysed using Qiagen or Promega lysis buffer. The lysate was transferred to an RNeasy Mini column (Qiagen) or wells of the SV 96 Binding Plate (Promega) for RNA isolation and cDNA synthesis. All tested samples were run in triplicate.
(§6) The SV 96 Total RNA Isolation System (Promega; Cat. No. Z3505) was used for total RNA isolation. Assay procedures were carried out according to each manufacturer's protocol. RNA samples were stored at −70° C. until use. […] The assay procedure was carried out according to the manufacturer's protocol.
(§7) The plate was centrifuged at 2000 rpm for 2 minutes at 4° C. to spin down the contents and eliminate air bubbles. Samples were prepared and run in a 96-well plate using a Life Technologies Real-Time PCR system (previously Applied Biosystems; Model No. 7500) according to the manufacturer's recommendation. The mix for the reference gene was prepared in the same way using the reference gene primer.
(§8) A relative quantitation method was used to analyze changes in mIL-2, mIL-4, mIL-5, mIL-10, mIL-13, mIFN-γ and TNF-α expression in GA treated samples relative to the untreated control (Enriched DCCM-1 treated) samples using the following program:
(§9) Levels of mouse cytokine amplicons were normalized to an internal probe level (GAPDH) from the same samples. The following equations were used to calculate the relative increase in response to GA stimulation compared to the control sample (Enriched DCCM1 sample): […]
In general terms: In qPCR the cycle at which signal appears reflects the starting amount.

In test [2] the test system is mouse IL-10 mRNA in primary LN cells. As to the kind of experiment: Validation: mouse IL-10 mRNA by real-time PCR in LN cells of GA-immunized SJL/J mice (Example IV). Type of test: cell-based. The settings on record: for IL-10 mRNA Fold Change: normalized to GAPDH. As to the method: as §1, §2, §3, §4, §5, §6, §7, §8, §9
Test [3] relates to IL-2 secreted by LN cells. The experiment in a line: IL-2 secretion by GA-stimulated LN cells, MSD 9-plex ELISA (Example II). It is filed as cell-based, mouse. The settings on record: 21 hr. The method, then:
(§10) Animals at 8 weeks of age were immunized by injection into four footpads using a 1 mL syringe with a 27-G, 1⁄2-inch needle. […] Ten days post-immunization, immunized animals were sacrificed via cervical dislocation. […] The LN cells were isolated by pressing the LN with the plunger end of a sterile syringe. […] Trypan blue exclusion method was used to determine the cell density of viable cells in the suspension. […] Cat. […] LN cells were plated into a 24-well tissue culture plate for drug stimulation. […] Cell debris was removed by centrifugation at ca. 200×g for 10 minutes at 4° C. Cytokines secreted by treated cells were determined on the day of collection by ELISA using mouse TH 1/TH 2 9-Plex Tissue Culture Kit (Meso Scale Discovery; Cat No. […]-2, Lot #: K0032839) which detects Th1 cytokines (IFN-γ, IL-2, IL-12, IL-1β, TNF-α, CXCL1) and Th2 cytokines (IL-4, IL-5 and IL-10). For IFN-γ, culture media also were assayed at 45 hours using mouse IFN-γ Tissue Culture Kit (Meso Scale Discovery; Cat No. […] For the positive control, 0.5 mL of LN cells (5×10^6 cells/well) were treated with 0.5 mL of ConA (5 μg/mL). For the negative control, 0.5 mL of LN cells (5×10^6 cells/well) were treated with 0.5 mL of MBP (20 μg/mL). The LN cells with mock stimulation (enriched DCCM1 medium) were used to monitor the background level of a cytokine. For the cytokine assays, calibration standards or samples were incubated in the MULTI-SPOT or the SINGLE-SPOT plate and each cytokine bound to its corresponding capture antibody. All test samples were run in duplicate. The amount of each cytokine on its distinct spot was quantified using a cytokine-specific detection antibody labeled with MSD SULFO-TAGTM reagent. Electrochemiluminescent signals from immobilized SULFO-TAGTM-labeled complexes on each spot from each well were captured by the MSD SECTOR Imager 6000, which produces a signal directly proportional to the amount of captured cytokine in a test sample. The levels of cytokines in test samples were derived by interpolation from calibration curves with calibration standards of known concentrations using reagents provided with the MSD kits. Kits were used according to the manufacturer's protocols. […] Data are expressed as a response ratio of cytokine concentration in treated cell medium to control DCCM1 medium.

Test [4] deals with mouse TNF-α mRNA in primary LN cells. As to the kind of experiment: Validation: mouse TNF-α mRNA by real-time PCR in LN cells of GA-immunized SJL/J mice (Example IV). Type of test: cell-based. The settings on record: for TNF-α mRNA Fold Change: normalized to GAPDH. As to the method: as §1, §2, §3, §4, §5, §6, §7, §8, §9
Test [5] concerns KC (CXCL1) secreted by LN cells. The experiment in a line: KC (CXCL1) secretion by GA-stimulated LN cells, MSD 9-plex ELISA (Example II). It is filed as cell-based, mouse. The following applies: 21 hr. The method, then: as §10
Where [6] appears, read: BALB/cByJ, immunized GA Intraplantar.
The mark [7] stands for this setting: BALB/cByJ, immunized Mannitol Intraplantar.
Where [8] appears, read: C57BL10J, immunized Mannitol Intraplantar.
Where [9] appears, read: CD-1, immunized GA Intraplantar.
[10] abbreviates: CD-1, immunized Mannitol Intraplantar.
Where [11] appears, read: SJL/J, MBP 10 μg/mL, all PCR runs.

In the case of “Concanavalin A [ConA, reference compound]”, the “IL-2 mRNA Fold Change” value in test [1] (Experiment 1, 2.5 μg/mL) stood at 147.1 fold; in test [1] (Experiment 2, 2.5 μg/mL), 72.0 fold; in test [1] (Experiment 3, 2.5 μg/mL), 188.6 fold. In addition, the “IL-10 mRNA Fold Change” value in test [2] (Experiment 1, 2.5 μg/mL) stood at 1.2 fold; in test [2] (Experiment 2, 2.5 μg/mL), 0.5 fold; in test [2] (Experiment 3, 2.5 μg/mL), 1.6 fold. Moreover, the “IL-2 secretion response ratio (treated cell medium to control DCCM1 medium)” value in test [3] (setting [6]) is 229.32; in test [3] (setting [7]), 281.66; in test [3] (setting [8]), 28.71; in test [3] (setting [9]), 85.01; in test [3] (setting [10]) it was 68.22. Further, the “TNF-α mRNA Fold Change” value is 1.9 fold in test [4] (Experiment 1, 2.5 μg/mL); 0.8 fold in test [4] (Experiment 2, 2.5 μg/mL); 1.6 fold in test [4] (Experiment 3, 2.5 μg/mL). Also, the “KC secretion response ratio (treated cell medium to control DCCM1 medium)” value stood at 1.52 in test [5] (setting [6]); 1.00 in test [5] (setting [7]); 1.34 in test [5] (setting [8]); 1.56 in test [5] (setting [9]); 2.55 in test [5] (setting [10]).

In the case of “L-glutamic acid polymer with L-alanine, L-lysine and L-tyrosine, acetate (salt) [GA]”, the “induction of IL-2 mRNA” value amounted to 31.7 fold in test [1] (SJL/J, Exp 1); 27.8 fold in test [1] (SJL/J, Exp 2); 42.0 fold in test [1] (SJL/J, Exp 3). Further, the “induction of IL-2 mRNA (in words)” value in test [1] (SJL/J, different concentrations of GA vs unstimulated LN cells) is “robust induction”.

B1: MBP: myelin basic protein, a negative control (protein, UniProt P02686 1-304, looked up)
Myelin basic protein: MGNHAGKRELNAEKASTNSETNRGESEKKRNLGELSRTTSEDNEVFGEADANQNNGTSSQDTAVTDSKRTADPKNAWQDAHPADPGSRPHLIRLFSRDAPGREDNTFKDRPSESDELQTIQEDSAATSESLDVMASQKRPSQRHGSKYLATASTMDHARHGFLPRHRDTGILDSIGRFFGGDRGAPKRGSGKDSHHPARTAHYGSLPQKSHGRTQDENPVVHFFKNIVTPRTPPPSQGKGRGLSLSRFSWGAEGQRPGFGYGGRASDYKSAHKGFKGVDAQGTLSKIFKLGGRDSRSGSPMARR
On to B1, for which the “IL-2 mRNA Fold Change” value in test [1] (Experiment 1, 10 μg/mL) worked out at 1.0 fold; in test [1] (Experiment 2, 10 μg/mL), 0.9 fold; in test [1] (Experiment 3, 10 μg/mL), 0.8 fold. Further, the “IL-2 mRNA expression level in response to MBP treatment” value in test [1] (setting [11]) is not above 2 fold. The “IL-10 mRNA Fold Change” value in test [2] (Experiment 1, 10 μg/mL) stood at 1.1 fold; in test [2] (Experiment 2, 10 μg/mL) it was 0.7 fold; in test [2] (Experiment 3, 10 μg/mL), 1.0 fold. Also, the “IL-10 mRNA expression level in response to MBP treatment” value in test [2] (setting [11]) is reported as not above 2 fold. The “IL-2 secretion response ratio (treated cell medium to control DCCM1 medium)” value was 0.97 in test [3] (setting [6]); 0.97 in test [3] (setting [7]); 0.98 in test [3] (setting [8]); 0.98 in test [3] (setting [9]); 1.28 in test [3] (setting [10]). Also, the “TNF-α mRNA Fold Change” value worked out at 1.0 fold in test [4] (Experiment 1, 10 μg/mL); 1.1 fold in test [4] (Experiment 2, 10 μg/mL); 1.1 fold in test [4] (Experiment 3, 10 μg/mL). The “TNF-α mRNA expression level in response to MBP treatment” value in test [4] (setting [11]) is listed as not above 2 fold. Besides, the “KC secretion response ratio (treated cell medium to control DCCM1 medium)” value amounted to 1.04 in test [5] (setting [6]); 0.96 in test [5] (setting [7]); 1.12 in test [5] (setting [8]); 1.05 in test [5] (setting [9]); 1.09 in test [5] (setting [10]).
